Experimental data: patent publication US9663473B2 (Actelion Pharmaceuticals Ltd, priority 2013, dated 2017)
Where a name gives a salt, the structure may show the parent alone. Blank lines part the entries; values can stand above or below the molecule they belong to.

Biological target: T1, recombinant human ALX receptor (Homo sapiens, UniProt P25090)
T1 construct: expressed in transfected cells; host or cells: HEK293 (HEK293-hALXR-Gα16)
T1 sequence (P25090 1-351): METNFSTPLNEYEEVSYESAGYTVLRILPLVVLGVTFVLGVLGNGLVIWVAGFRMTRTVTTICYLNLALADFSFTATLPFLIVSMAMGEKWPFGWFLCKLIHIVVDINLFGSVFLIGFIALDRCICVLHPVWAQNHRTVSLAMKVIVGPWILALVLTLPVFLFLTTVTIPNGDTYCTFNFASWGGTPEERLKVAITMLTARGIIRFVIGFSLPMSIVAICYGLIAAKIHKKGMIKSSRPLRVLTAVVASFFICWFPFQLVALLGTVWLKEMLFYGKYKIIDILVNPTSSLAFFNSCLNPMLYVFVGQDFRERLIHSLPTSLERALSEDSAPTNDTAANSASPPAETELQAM
Experiment: Intracellular calcium measurements (FLIPR), ALX receptor agonistic activity
Assay type: cell-based
Conditions: HEK293-hALXR-Gα16 cells, Fluo-4 calcium signal, normalized to WKYMVm 10 nM
Summary of the method: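 HEK293 cells co-expressing human ALX receptor and Gα16 were loaded with 1 μM Fluo-4 AM for 60 min at 37° C., then exposed to serially diluted compounds on FLIPR Tetra. Peak fluorescence above baseline (ex 488/em 540 nm) was normalized to 10 nM WKYMVm as high control.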

EC50: 113 nM
Structure (SMILES): COc1ccc(CC(NC(=O)NC2CCOCC2)c2nc3ccccc3[nH]2)cc1 (stereo not shown) [Example 10, 1-(1-(1H-Benzo[d]imidazol-2-yl)-2-(4-methoxyphenyl)ethyl)-3-(tetrahydro-2H-pyran-4-yl)urea]

EC50: 585 nM
Structure (SMILES): COc1ccc(C[C@@H](NC(=O)N[C@H](C)c2ccc(Br)cc2)c2nc3ccccc3[nH]2)cc1 [Example 322, 1-((R)-1-(1H-Benzo[d]imidazol-2-yl)-2-(4-methoxyphenyl)ethyl)-3-((R)-1-(4-bromophenyl)ethyl)urea]

EC50: 50 nM
Structure (SMILES): COc1ccc(C[C@@H](NC(=O)NCc2cccc(Cl)c2Cl)c2nc3ccccc3[nH]2)cc1 [Example 307, (R)-1-(1-(1H-Benzo[d]imidazol-2-yl)-2-(4-methoxyphenyl)ethyl)-3-(2,3-dichlorobenzyl)urea]

EC50: 105 nM
Structure (SMILES): COc1ccc(C[C@@H](NC(=O)N[C@@H](C)c2ccc(C)cc2)c2nc3ccccc3[nH]2)cc1 [Example 333, 1-((R)-1-(1H-Benzo[d]imidazol-2-yl)-2-(4-methoxyphenyl)ethyl)-3-((S)-1-(p-tolyl)ethyl)urea]

EC50: 1630 nM
Structure (SMILES): COc1ccc(CC(NC(=O)NCc2cc(C(C)C)on2)c2nc3ccccc3[nH]2)cc1 (stereo not shown) [Example 377, 1-(1-(1H-Benzo[d]imidazol-2-yl)-2-(4-methoxyphenyl)ethyl)-3-((5-isopropylisoxazol-3-yl)methyl)urea]

EC50: 835 nM
Structure (SMILES): COc1ccc(C[C@@H](NC(=O)NCc2ccccc2Cl)c2nc3ccccc3[nH]2)cc1 [Example 207, (R)-1-(1-(1H-Benzo[d]imidazol-2-yl)-2-(4-methoxyphenyl)ethyl)-3-(2-chlorobenzyl)urea]

EC50: 112 nM
Structure (SMILES): COc1ccc(C[C@@H](NC(=O)N[C@H]2C[C@@H]2c2ccccc2)c2nc3ccccc3[nH]2)cc1 (relative stereo) [Example 16, 1-((R)-1-(1H-Benzo[d]imidazol-2-yl)-2-(4-methoxyphenyl)ethyl)-3-((1 S*,2R*)-2-phenylcyclopropyl)urea hydrochloride]

EC50: 105 nM
Structure (SMILES): COc1ccc(C[C@@H](NC(=O)NC[C@@H](O)c2ccccc2)c2nc3ccccc3[nH]2)cc1 [Example 281, 1-((R)-1-(1H-Benzo[d]imidazol-2-yl)-2-(4-methoxyphenyl)ethyl)-3-((S)-2-hydroxy-2-phenylethyl)urea]

EC50: 601 nM
Structure (SMILES): COc1ccc(CC(NC(=O)NCc2cccc(Cl)c2)c2nc3ccccc3[nH]2)cc1 (stereo not shown) [Example 46, 1-(1-(1H-Benzo[d]imidazol-2-yl)-2-(4-methoxyphenyl)ethyl)-3-(3-chlorobenzyl)urea]

EC50: 565 nM
Structure (SMILES): COc1ccc(C[C@@H](NC(=O)NCc2nc(C(C)(F)F)co2)c2nc3ccccc3[nH]2)cc1 [Example 423, (R)-1-(1-(1H-benzo[d]imidazol-2-yl)-2-(4-methoxyphenyl)ethyl)-3-((4-(1,1-difluoroethyl)oxazol-2-yl)methyl)urea]

EC50: 362 nM
Structure (SMILES): COc1ccc(CC(NC(=O)Nc2ccnn2-c2ccncc2)c2nc3ccccc3[nH]2)cc1 (stereo not shown) [Example 409, 1-(1-(1H-benzo[d]imidazol-2-yl)-2-(4-methoxyphenyl)ethyl)-3-(1-(pyridin-4-yl)-1H-pyrazol-5-yl)urea]

EC50: 111 nM
Structure (SMILES): COc1ccc(C[C@@H](NC(=O)N[C@@H]2CCc3ccccc32)c2nc3ccccc3[nH]2)cc1 [Example 334, 1-((R)-1-(1H-Benzo[d]imidazol-2-yl)-2-(4-methoxyphenyl)ethyl)-3-((R)-2,3-dihydro-1H-inden-1-yl)urea]

EC50: 80 nM
Structure (SMILES): COc1ccc(C[C@@H](NC(=O)NCC2CCCc3ccccc32)c2nc3ccccc3[nH]2)cc1 (stereo partly drawn) [Example 305, 1-((R)-1-(1H-Benzo[d]imidazol-2-yl)-2-(4-methoxyphenyl)ethyl)-3-((1,2,3,4-tetrahydronaphthalen-1-yl)methyl)urea]

EC50: 461 nM
Structure (SMILES): COc1ccc(C[C@@H](NC(=O)NC(C)(C)c2cccc(C)c2)c2nc3ccccc3[nH]2)cc1 [Example 353, (R)-1-(1-(1H-Benzo[d]imidazol-2-yl)-2-(4-methoxyphenyl)ethyl)-3-(2-(m-tolyl)propan-2-yl)urea]

EC50: 172 nM
Structure (SMILES): COc1ccc(CC(NC(=O)N[C@H]2CC[C@H](OC)CC2)c2nc3ccccc3[nH]2)cc1 (relative stereo) [Example 80, 1-(1-(1H-Benzo[d]imidazol-2-yl)-2-(4-methoxyphenyl)ethyl)-3-(trans-4-methoxycyclohexyl)urea]

EC50: 136 nM
Structure (SMILES): CCOCc1ccccc1CNC(=O)NC(Cc1ccc(OC)cc1)c1nc2ccccc2[nH]1 (stereo not shown) [Example 50, 1-(1-(1H-Benzo[d]imidazol-2-yl)-2-(4-methoxyphenyl)ethyl)-3-(2-(ethoxymethyl)benzyl)urea]

Second part, the molecule before the results:

Structure (SMILES): COC(=O)N1CC2CCC1CN2C(=O)N[C@H](Cc1ccc(OC)cc1)c1nc2ccccc2[nH]1 (stereo partly drawn) [Example 162, Methyl 5-(((R)-1-(1H-benzo[d]imidazol-2-yl)-2-(4-methoxyphenyl)ethyl)carbamoyl)-2,5-diazabicyclo[2.2.2]octane-2-carboxylate]
EC50: 866 nM

Structure (SMILES): COc1ccc(C[C@@H](NC(=O)N[C@@H](CO)Cc2ccccc2)c2nc3ccccc3[nH]2)cc1 [Example 205, 1-((R)-1-(1H-Benzo[d]imidazol-2-yl)-2-(4-methoxyphenyl)ethyl)-3-((R)-1-hydroxy-3-phenylpropan-2-yl)urea]
EC50: 62 nM

Structure (SMILES): COc1ccc(C[C@@H](NC(=O)N2CCC3CNCC32)c2nc3ccccc3[nH]2)cc1 (stereo partly drawn) [Example 127, N—((R)-1-(1H-Benzo[d]imidazol-2-yl)-2-(4-methoxyphenyl)ethyl)hexahydropyrrolo[3,4-b]pyrrole-1(2H)-carboxamide]
EC50: 246 nM

Structure (SMILES): COc1ccc(CC(NC(=O)NC23CCC(O)(CC2)CC3)c2nc3ccccc3[nH]2)c(F)c1F (single isomer, unassigned; ent-1) [Example 266, 1-(1-(1H-Benzo[d]imidazol-2-yl)-2-(2,3-difluoro-4-methoxyphenyl)ethyl)-3-(4-hydroxybicyclo[2.2.2]octan-1-yl)urea (ent-1)]
EC50: 3.3 nM

Structure (SMILES): COc1ccc(C[C@@H](NC(=O)NC2CCc3cc(OC)c(OC)cc32)c2nc3ccccc3[nH]2)cc1 (stereo partly drawn) [Example 348, 1-((R)-1-(1H-Benzo[d]imidazol-2-yl)-2-(4-methoxyphenyl)ethyl)-3-(5,6-dimethoxy-2,3-dihydro-1H-inden-1-yl)urea]
EC50: 26 nM

Structure (SMILES): COc1ccc(C[C@@H](NC(=O)NC2CCCCCC2)c2nc3ccccc3[nH]2)cc1 [Example 99, (R)-1-(1-(1H-Benzo[d]imidazol-2-yl)-2-(4-methoxyphenyl)ethyl)-3-cycloheptylurea]
EC50: 57 nM

Structure (SMILES): CC(C)(C)c1ccc(CC(NC(=O)N[C@H]2CC[C@H](O)CC2)c2nc3ccccc3[nH]2)cc1 (relative stereo) [Example 79, 1-(1-(1H-Benzo[d]imidazol-2-yl)-2-(4-(tert-butyl)phenyl)ethyl)-3-(trans-4-hydroxycyclohexyl)urea]
EC50: 707 nM

Structure (SMILES): COc1ccc(C[C@@H](NC(=O)N[C@@H](C)C2CCCCC2)c2nc3ccccc3[nH]2)cc1 [Example 347, 1-((R)-1-(1H-Benzo[d]imidazol-2-yl)-2-(4-methoxyphenyl)ethyl)-3-((S)-1-cyclohexylethyl)urea]
EC50: 365 nM

Structure (SMILES): COc1ccc(C(C)C(NC(=O)N[C@H]2CC[C@H](O)CC2)c2nc3ccccc3[nH]2)cc1 (relative stereo) [Example 395, 1-(1-(1H-Benzo[d]imidazol-2-yl)-2-(4-methoxyphenyl)propyl)-3-(trans-4-hydroxycyclohexyl)urea]
EC50: 6.4 nM

Structure (SMILES): COc1ccc(C[C@@H](NC(=O)N[C@H]2CC[C@H](O)CC2)c2nc3c(F)cccc3[nH]2)cc1 [Example 124, 1-((R)-1-(4-Fluoro-1H-benzo[d]imidazol-2-yl)-2-(4-methoxyphenyl)ethyl)-3-(trans-4-hydroxycyclohexyl)urea]
EC50: 174 nM

Structure (SMILES): COc1ccc(CC(NC(=O)N[C@H]2CC[C@H](O)CC2)c2nc3ccccc3[nH]2)c(F)c1F (single isomer, unassigned; ent-1) [Example 365, 1-(1-(1H-Benzo[d]imidazol-2-yl)-2-(2,3-difluoro-4-methoxyphenyl)ethyl)-3-(trans-4-hydroxycyclohexyl)urea (ent-1)]
EC50: 1.7 nM

Structure (SMILES): COc1c(F)c(F)c(CC(NC(=O)N[C@H]2CC[C@H](O)CC2)c2nc3ccccc3[nH]2)c(F)c1F (single isomer, unassigned; ent-1) [Example 312, 1-(1-(1H-Benzo[d]imidazol-2-yl)-2-(2,3,5,6-tetrafluoro-4-methoxyphenyl)ethyl)-3-(trans-4-hydroxycyclohexyl)urea (ent-1)]
EC50: 22 nM

Structure (SMILES): O=C(NC(Cc1ccc(Br)c(F)c1)c1nc2ccccc2[nH]1)N[C@H]1CC[C@H](O)CC1 (single isomer, unassigned; ent-2) [Example 262, 1-(1-(1H-Benzo[d]imidazol-2-yl)-2-(4-bromo-3-fluorophenyl)ethyl)-3-(trans-4-hydroxycyclohexyl)urea (ent-2)]
EC50: 11 nM

Structure (SMILES): COc1ccc(C[C@@H](NC(=O)N[C@H]2CC[C@H](C(=O)O)CC2)c2nc3ccccc3[nH]2)cc1 [Example 225, trans-4-(3-((R)-1-(1H-Benzo[d]imidazol-2-yl)-2-(4-methoxyphenyl)ethyl)ureido)cyclohexanecarboxylic acid, lithium salt]
EC50: 48 nM

Structure (SMILES): COc1ccc(C[C@@H](NC(=O)NC2CCN(Cc3ccccc3)CC2)c2nc3ccccc3[nH]2)cc1 [Example 88, (R)-1-(1-(1H-Benzo[d]imidazol-2-yl)-2-(4-methoxyphenyl)ethyl)-3-(1-benzylpiperidin-4-yl)urea]
EC50: 101 nM
